The record followed here is PubChem BioAssay (NCI).

Test in all cases: NCI anticancer screen, dose series, 48 h
For assay [1], the system named is TK-10 renal.
The subject of assay [2] is SK-MEL-5 melanoma.
Assay [3] has as its system NCI-H460 lung.
Assay [4] concerns HOP-62 NSCLC.
In assay [5] the test system is DU-145 prostate.
Assay [6] deals with SNB-75 CNS.
Assay [7] relates to RXF 393 renal.
Assay [8] concerns MOLT-4 leukemia.
Assay [9] has as its system NCI-H23 lung.
For assay [10], the system named is NCI-H226 lung.

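Protocol summary: plate cells (96-well), add compound at 5 concentrations, incubate 48 h, interpolate endpoints linearly. Abbreviation: GI50, concentration required for 50% inhibition of growth. Definition used: TGI = concentration required for complete inhibition of growth.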 A value given as a limit tells only on which side of the number the result lay.

For `CC(C)(C)c1ccc(Oc2nccc(-c3c(-c4ccc(F)cc4)ncn3C3CCNCC3)n2)cc1`, the GI50 in [1] is 4.4 µM; in assay [2], 3.68 µM; in [3], 3.91 µM; in [4], 4.25 µM; in assay [5], 3.71 µM; in assay [6] it was 2.89 µM. The GI50 in assay [7] was 3.22 µM; in [8], 2.93 µM. Besides, the TGI in assay [1] was determined as 8.04 µM; in [2], 7.03 µM; in [3] it was 8.21 µM; in [4], 7.88 µM; in assay [5] it was 7.06 µM; in assay [6], 6.15 µM. Besides, the TGI came out at 7.07 µM in [7] and 7.13 µM in assay [8].

Consider `C[C@H]1[C@H](C)CC[C@]2(CO)CC[C@]3(C)C(=CC[C@@H]4[C@@]5(C)CCCNC(C)(C)[C@@H]5CC[C@]43C)[C@H]12`, for which the GI50 in assay [1] was 1.84 µM; in assay [2] it was 1.7 µM; in [3] it was 1.78 µM; in [4], 1.81 µM; in [5], 1.72 µM; in assay [6] it was 1.49 µM. The GI50 in assay [7] was 1.81 µM; in assay [9], 1.65 µM; in assay [8], 1.37 µM. The TGI in [1] came out at 3.32 µM; in [2], 3.09 µM; in assay [3] it was 3.35 µM; in assay [4], 3.43 µM; in [5], 3.14 µM; in assay [6], 2.9 µM. For the same molecule, the TGI in [7] amounted to 3.51 µM; in [9] it was 3.26 µM; in [8], 3.15 µM.

`O=C(O)C(/C=C/c1ccccc1)c1ccccc1` (stereo unspecified): the TGI in assay [1], in [2], in [3], in [10], in [4] and in assay [5] was greater than 100 µM each time. In addition, the TGI in assay [6], in assay [7], in assay [9] and in [8] was greater than 100 µM each time.

Turning to `Cc1ccc(S(=O)(=O)N/N=C/c2c(O)ccc3ccccc23)cc1`, the TGI is greater than 100 µM in [1]; greater than 100 µM in assay [2]; greater than 100 µM in assay [3]; greater than 100 µM in assay [4]; greater than 100 µM in assay [5]; 74.3 µM in assay [6]. Moreover, the TGI was 42.4 µM in assay [7], 83.2 µM in assay [9] and greater than 100 µM in assay [8].

On to `COC(=O)C1(C)CCC(c2ccc(C)cc2)=C(CC(=O)O)C1` (stereo unspecified), for which the TGI in [1], in assay [2], in assay [3], in assay [4], in assay [5] and in assay [6] was greater than 100 µM in each case. Further, the TGI in [7], in [9] and in assay [8] was greater than 100 µM throughout.

As to `CC/C=C1/C(=O)C=C[C@@H]1C/C=C\CCCC(=O)OC`, the GI50 in assay [1] is 4.07 µM; in assay [2], 1.77 µM; in assay [10], 13.7 µM; in [4], 3.39 µM; in [5], 4.56 µM; in [6], 12.9 µM. The GI50 in assay [7] is 2.03 µM; in assay [9], 2.17 µM; in assay [8], 1.37 µM. The TGI in assay [1] amounted to 14.5 µM; in assay [2] it was 3.2 µM; in assay [10] it was 31.2 µM; in assay [4], 11.9 µM; in assay [5] it was 16.4 µM; in assay [6], 33.2 µM. Moreover, the TGI in assay [7] was determined as 3.9 µM; in assay [9] it was 5.86 µM; in assay [8] it was 8.11 µM.

`CCC(C)(CC(C)(C)C(=O)NCC(=O)NC(Cc1ccccc1)C(=O)NC(Cc1ccccc1)C(=O)NCC(=O)NC1CC(OC2CC(O)(C(=O)CO)Cc3c(O)c4c(c(O)c32)C(=O)c2c(OC)cccc2C4=O)OC(C)C1O)C(=O)NCC(C)O` (stereo unspecified): the GI50 in [1] is greater than 150 µg/mL; in [2] it was 28.8 µg/mL; in assay [10] it was 41.4 µg/mL; in [4] it was 63.7 µg/mL; in assay [5], 121 µg/mL; in assay [6], 16.1 µg/mL. The GI50 is greater than 150 µg/mL in [7], 72.9 µg/mL in assay [9] and 7.84 µg/mL in assay [8]. The TGI was greater than 150 µg/mL in assay [1]; 148 µg/mL in assay [2]; greater than 150 µg/mL in assay [10]; greater than 150 µg/mL in assay [4]; greater than 150 µg/mL in [5]; greater than 150 µg/mL in assay [6]. In addition, the TGI in assay [7] is greater than 150 µg/mL; in assay [9], greater than 150 µg/mL; in assay [8] it was 96.6 µg/mL.

For `Cc1ccc(Nc2n[nH]c(=S)s2)cc1C`, the TGI in [1], in assay [2], in assay [3], in assay [4], in [5] and in assay [6] was greater than 100 µM throughout. Further, the TGI in assay [7], in assay [9] and in [8] was greater than 100 µM in each case.

Consider `COc1cc([N+](=O)[O-])c(OC)cc1-c1nc2sc(Cl)cn2c1/C(N)=N/C(=N)N`, for which the GI50 is 7.31 µM in [1]; 4.52 µM in assay [2]; 16.1 µM in [3]; 20.9 µM in assay [10]; 6.32 µM in assay [4]; 7.2 µM in assay [5]. For the same molecule, the GI50 in [7] is 4.3 µM; in assay [9], 3.43 µM; in assay [8] it was 3.09 µM. For the same molecule, the TGI is 24.3 µM in assay [1]; 29.5 µM in assay [2]; 46.7 µM in [3]; 53.9 µM in assay [10]; 17.3 µM in [4]; 27.9 µM in assay [5]. In addition, the TGI in [7] is 16.9 µM; in [9], 10.8 µM; in [8], greater than 100 µM.

Consider `O=[N+]([O-])O.[Cu+2].[NH-]CC[NH-].[NH-]CC[NH-]`, for which the GI50 in assay [2], in [3], in assay [10], in [4], in [5] and in assay [6] was greater than 10 µM in each case. The GI50 in assay [7], in [9] and in assay [8] was greater than 10 µM in each case. For the same molecule, the TGI in assay [2], in assay [3], in [10], in assay [4], in assay [5] and in assay [6] was greater than 10 µM in each case. Moreover, the TGI in assay [7], in assay [9] and in assay [8] was greater than 10 µM throughout.

`COc1ccc(C(=O)OC2C(OC3C(O)COC(O[C@H]4C[C@H]5[C@@H]6CC=C7C[C@@H](O)CC[C@]7(C)[C@H]6CC[C@]5(C)[C@H]4[C@H](C)C(=O)CCC(C)C)C3OC(N)=O)OCC(O)C2O)cc1` (stereo partly specified): the GI50 in assay [1] was 1.04 µM; in assay [2] it was 0.114 µM; in assay [3], 0.0142 µM; in [4], 0.0247 µM; in [5] it was 0.0285 µM; in assay [6], less than 0.003 µM. Also, the GI50 in [7] was less than 0.003 µM; in assay [9] it was 0.375 µM; in assay [8], 0.00564 µM. In addition, the TGI was 5.23 µM in assay [1]; 0.615 µM in assay [2]; 0.496 µM in assay [3]; 1.7 µM in assay [4]; 5.34 µM in assay [5]; 3.87 µM in assay [6]. Further, the TGI in assay [7] stood at 0.0509 µM; in assay [9], 4.81 µM; in assay [8] it was 0.0212 µM.

With `COC(=O)c1nc(-c2ccccc2)oc1S(=O)(=O)Cc1ccccc1`, the GI50 was 1.74 µM in assay [1]; 19.8 µM in assay [3]; 13.9 µM in assay [10]; 26.8 µM in assay [4]; 3.46 µM in assay [5]; 14.1 µM in assay [6]. Besides, the results for the GI50 in assay [7], in assay [9] and in assay [8] were 1.87 µM, 16.2 µM and 2.11 µM, respectively. Further, the TGI in assay [1] was 3.19 µM; in assay [3] it was 40 µM; in assay [10] it was 31.4 µM; in assay [4], greater than 100 µM; in assay [5], 10.9 µM; in assay [6], 27.1 µM. For the same molecule, the TGI in assay [7] came to 3.5 µM; in assay [9], 34.4 µM; in assay [8] it was 5.57 µM.

On to `COc1ccc(-c2c[nH]c(C(=O)O)c2-c2cc(OC)c(OC)c(OC)c2)cc1`, for which the GI50 in [1] is greater than 100 µM; in [2], 3.5 µM; in [3], 3.8 µM; in assay [10], 4.59 µM; in assay [4] it was 5.87 µM; in [5], 4.27 µM. For the same molecule, the GI50 in assay [7] is 2.33 µM; in assay [9], 7.77 µM; in assay [8], 4.95 µM. Also, the TGI in [1], in assay [2], in [3], in assay [10], in [4] and in [5] was greater than 100 µM in each case. Also, the TGI in [7] is 6.77 µM; in assay [9] it was greater than 100 µM; in assay [8], greater than 100 µM.

Consider `O=C(O)CNC(=O)c1ccc(-c2ccccc2)cc1`, for which the TGI in assay [1], in assay [2], in [3], in [10], in assay [4] and in [5] was greater than 100 µM each time. In addition, the TGI in assay [7], in assay [9] and in assay [8] was greater than 100 µM each time.

For the molecule `COc1cnc2c(c1)C(=O)c1c-2n(CCCn2ccnc2)c(=O)c2cc(F)ccc12`, the GI50 is 0.0169 µM in [2]; less than 0.01 µM in assay [3]; 0.0251 µM in assay [10]; less than 0.01 µM in assay [4]; less than 0.01 µM in assay [5]; 0.187 µM in [6]. In addition, the GI50 in assay [7] is 0.0309 µM; in [9] it was 0.0171 µM; in assay [8] it was less than 0.01 µM. The TGI in [2] amounted to 0.0717 µM; in [3], 0.133 µM; in [10] it was 0.213 µM; in assay [4] it was 0.176 µM; in [5], 1.17 µM; in assay [6] it was 21.8 µM. Besides, the TGI in assay [7] worked out at 0.171 µM; in assay [9], 0.565 µM; in assay [8], 0.131 µM.

In the case of `C=C1C(=O)O[C@H]2[C@H]1CC/C(COC(=O)NCc1cn(C)c3ccccc13)=C\CC[C@@]1(C)O[C@@H]21`, the GI50 in assay [1] was 1.8 µM; in assay [2] it was 1.41 µM; in [3] it was 2.77 µM; in [10], 4.38 µM; in assay [5], 1.26 µM; in assay [6] it was 4.16 µM. For the same molecule, the GI50 in assay [7] was 1.26 µM; in assay [9], 2.01 µM; in assay [8], 1.92 µM. Further, the TGI in assay [1] stood at 3.43 µM; in [2] it was 2.74 µM; in assay [3], 10.1 µM; in [10], 20.9 µM; in assay [5], 2.55 µM; in assay [6], 17.6 µM. The TGI in assay [7] stood at 2.7 µM; in assay [9], 4.69 µM; in assay [8], 5.98 µM.

Turning to `COc1ccc2cc(C(=O)/C=C/c3ccc(Cl)cc3Cl)ccc2c1`, the GI50 was 27.7 µM in assay [1]; 12.1 µM in [2]; 70.7 µM in assay [3]; 24 µM in assay [4]; 23 µM in assay [5]; 4.52 µM in assay [7]. Moreover, the results for the GI50 in assay [9] and in assay [8] were 20.5 µM and 4.01 µM, respectively. The TGI in assay [1] was greater than 100 µM; in [2], 29.9 µM; in [3], greater than 100 µM; in assay [4], 50.8 µM; in assay [5] it was 62.1 µM; in assay [7], 14.5 µM. Besides, the TGI in assay [9] amounted to 53.4 µM; in assay [8], 17.7 µM.

Consider `O=C1Nc2ccccc2/C1=C/C(=O)c1coc2c1C(=O)c1ccccc1C2=O`, for which the GI50 in assay [1] was greater than 100 µM; in assay [2] it was 30.4 µM; in [3], greater than 100 µM; in assay [10] it was greater than 100 µM; in [5] it was greater than 100 µM; in assay [6], 18.9 µM. Besides, the results for the GI50 in [7], in [9] and in [8] were greater than 100 µM, greater than 100 µM and 62.3 µM, respectively. Also, the TGI in assay [1], in [2], in [3], in assay [10], in assay [5] and in [6] was greater than 100 µM throughout. Moreover, the TGI in assay [7], in assay [9] and in [8] was greater than 100 µM each time.
